Laboratory results taken from PubChem BioAssay (NCI).
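Exposure lasted 48 hours, with cells grown in 96-well plates and compounds tested at five concentrations. TGI denotes the concentration required for complete inhibition of growth.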

Key:
Test in all cases: growth of human tumour cells (NCI), 48 h
RPMI-8226 leukemia = tested on: RPMI-8226 leukemia
SF-268 CNS = tested on: SF-268 CNS
COLO 205 colon = tested on: COLO 205 colon
EKVX NSCLC = tested on: EKVX NSCLC
SNB-19 CNS = tested on: SNB-19 CNS
HT29 colon = tested on: HT29 colon
UACC-257 melanoma = tested on: UACC-257 melanoma
CCRF-CEM leukemia = tested on: CCRF-CEM leukemia
MALME-3M melanoma = tested on: MALME-3M melanoma
HS 578T breast = tested on: HS 578T breast
OVCAR-5 ovarian = tested on: OVCAR-5 ovarian
MOLT-4 leukemia = tested on: MOLT-4 leukemia
SR leukemia = tested on: SR leukemia
K-562 leukemia = tested on: K-562 leukemia
TK-10 renal = tested on: TK-10 renal
SK-MEL-5 melanoma = tested on: SK-MEL-5 melanoma
PC-3 prostate = tested on: PC-3 prostate
ACHN renal = tested on: ACHN renal
IGROV1 ovarian = tested on: IGROV1 ovarian
MDA-MB-231 breast = tested on: MDA-MB-231 breast
MDA-N = tested on: MDA-N
HL-60(TB) leukemia = tested on: HL-60(TB) leukemia
786-0 renal = tested on: 786-0 renal
KM12 colon = tested on: KM12 colon
DU-145 prostate = tested on: DU-145 prostate
SK-MEL-2 melanoma = tested on: SK-MEL-2 melanoma
SK-MEL-28 melanoma = tested on: SK-MEL-28 melanoma
NCI-H226 lung = tested on: NCI-H226 lung
NCI-H460 lung = tested on: NCI-H460 lung
OVCAR-8 ovarian = tested on: OVCAR-8 ovarian
LOX IMVI melanoma = tested on: LOX IMVI melanoma
T-47D breast = tested on: T-47D breast
HCT-116 colon = tested on: HCT-116 colon
NCI/ADR-RES ovarian = tested on: NCI/ADR-RES ovarian
SW-620 colon = tested on: SW-620 colon
HCT-15 colon = tested on: HCT-15 colon
UO-31 renal = tested on: UO-31 renal
SF-295 CNS = tested on: SF-295 CNS
CAKI-1 renal = tested on: CAKI-1 renal
M14 melanoma = tested on: M14 melanoma
HOP-92 NSCLC = tested on: HOP-92 NSCLC
SNB-75 CNS = tested on: SNB-75 CNS
OVCAR-4 ovarian = tested on: OVCAR-4 ovarian
HCC-2998 colon = tested on: HCC-2998 colon
SF-539 CNS = tested on: SF-539 CNS
RXF 393 renal = tested on: RXF 393 renal
A549 NSCLC = tested on: A549 NSCLC
A498 renal = tested on: A498 renal
NCI-H23 lung = tested on: NCI-H23 lung
SN12C renal = tested on: SN12C renal
SK-OV-3 ovarian = tested on: SK-OV-3 ovarian
MCF7 breast = tested on: MCF7 breast
U251 CNS = tested on: U251 CNS
HOP-62 NSCLC = tested on: HOP-62 NSCLC
NCI-H522 lung = tested on: NCI-H522 lung
MDA-MB-435 = tested on: MDA-MB-435

CCOC(=O)c1c(N2CCCC2)nsc1Nc1ccccc1
TGI (RPMI-8226 leukemia): > 100 µM
TGI (SF-268 CNS): > 100 µM
TGI (COLO 205 colon): > 100 µM
TGI (EKVX NSCLC): > 100 µM
TGI (SNB-19 CNS): > 100 µM
TGI (HT29 colon): > 100 µM
TGI (UACC-257 melanoma): > 100 µM
TGI (CCRF-CEM leukemia): > 100 µM
TGI (MALME-3M melanoma): > 100 µM
TGI (HS 578T breast): > 100 µM
TGI (OVCAR-5 ovarian): > 100 µM
TGI (MOLT-4 leukemia): > 100 µM
TGI (SR leukemia): > 100 µM
TGI (K-562 leukemia): > 100 µM
TGI (TK-10 renal): > 100 µM
TGI (SK-MEL-5 melanoma): > 100 µM
TGI (PC-3 prostate): > 100 µM
TGI (ACHN renal): > 100 µM
TGI (IGROV1 ovarian): > 100 µM
TGI (MDA-MB-231 breast): > 100 µM
TGI (MDA-N): > 100 µM
TGI (HL-60(TB) leukemia): > 100 µM
TGI (786-0 renal): > 100 µM
TGI (KM12 colon): > 100 µM
TGI (DU-145 prostate): > 100 µM
TGI (SK-MEL-2 melanoma): > 100 µM
TGI (SK-MEL-28 melanoma): > 100 µM
TGI (NCI-H226 lung): > 100 µM
TGI (NCI-H460 lung): > 100 µM
TGI (OVCAR-8 ovarian): > 100 µM
TGI (LOX IMVI melanoma): > 100 µM
TGI (T-47D breast): > 100 µM
TGI (HCT-116 colon): > 100 µM
TGI (NCI/ADR-RES ovarian): > 100 µM
TGI (SW-620 colon): > 100 µM
TGI (HCT-15 colon): > 100 µM
TGI (UO-31 renal): > 100 µM
TGI (SF-295 CNS): > 100 µM
TGI (CAKI-1 renal): > 100 µM
TGI (M14 melanoma): > 100 µM
TGI (HOP-92 NSCLC): > 100 µM
TGI (SNB-75 CNS): > 100 µM
TGI (OVCAR-4 ovarian): > 100 µM
TGI (HCC-2998 colon): > 100 µM
TGI (SF-539 CNS): > 100 µM
TGI (RXF 393 renal): > 100 µM
TGI (A549 NSCLC): > 100 µM
TGI (A498 renal): > 100 µM
TGI (NCI-H23 lung): > 100 µM
TGI (SN12C renal): > 100 µM

COc1ccc2[nH]c3c(c2c1)CCn1c-3nc2ccccc2c1=O
TGI (RPMI-8226 leukemia): > 25 µM
TGI (SF-268 CNS): > 25 µM
TGI (COLO 205 colon): > 25 µM
TGI (EKVX NSCLC): > 25 µM
TGI (SNB-19 CNS): > 25 µM
TGI (SK-OV-3 ovarian): > 25 µM
TGI (UACC-257 melanoma): > 25 µM
TGI (MCF7 breast): > 25 µM
TGI (CCRF-CEM leukemia): > 25 µM
TGI (HS 578T breast): > 25 µM
TGI (OVCAR-5 ovarian): > 25 µM
TGI (MOLT-4 leukemia): > 25 µM
TGI (SR leukemia): > 25 µM
TGI (K-562 leukemia): > 25 µM
TGI (TK-10 renal): > 25 µM
TGI (U251 CNS): > 25 µM
TGI (SK-MEL-5 melanoma): > 25 µM
TGI (PC-3 prostate): > 25 µM
TGI (ACHN renal): > 25 µM
TGI (IGROV1 ovarian): > 25 µM
TGI (MDA-MB-231 breast): > 25 µM
TGI (MDA-N): > 25 µM
TGI (HL-60(TB) leukemia): > 25 µM
TGI (786-0 renal): > 25 µM
TGI (KM12 colon): > 25 µM
TGI (SK-MEL-28 melanoma): > 25 µM
TGI (NCI-H460 lung): > 25 µM
TGI (HOP-62 NSCLC): > 25 µM
TGI (NCI-H522 lung): > 25 µM
TGI (OVCAR-8 ovarian): > 25 µM
TGI (T-47D breast): > 25 µM
TGI (HCT-116 colon): > 25 µM
TGI (NCI/ADR-RES ovarian): > 25 µM
TGI (SW-620 colon): > 25 µM
TGI (HCT-15 colon): > 25 µM
TGI (UO-31 renal): > 25 µM
TGI (SF-295 CNS): > 25 µM
TGI (M14 melanoma): > 25 µM
TGI (SNB-75 CNS): > 25 µM
TGI (OVCAR-4 ovarian): > 25 µM
TGI (HCC-2998 colon): > 25 µM
TGI (SF-539 CNS): > 25 µM
TGI (MDA-MB-435): > 25 µM
TGI (A549 NSCLC): > 25 µM
TGI (SN12C renal): > 25 µM
